Measured values published in ChEMBL document CHEMBL1131134, “A novel class of adenosine A3 receptor ligands. 2. Structure affinity profile of a series of isoquinoline and quinazoline compounds” (J Med Chem, 1998).

Assays:
[1] = biological target: T1, Adenosine receptor A1 (Rattus norvegicus) (UniProt P25099); assay: Antagonist activity by displacement of specific [3H]DPCPX binding in rat cortical membrane (Adenosine A1 receptor) at a Conc of […].; assay type: cell membranes
T1 sequence (whole entry): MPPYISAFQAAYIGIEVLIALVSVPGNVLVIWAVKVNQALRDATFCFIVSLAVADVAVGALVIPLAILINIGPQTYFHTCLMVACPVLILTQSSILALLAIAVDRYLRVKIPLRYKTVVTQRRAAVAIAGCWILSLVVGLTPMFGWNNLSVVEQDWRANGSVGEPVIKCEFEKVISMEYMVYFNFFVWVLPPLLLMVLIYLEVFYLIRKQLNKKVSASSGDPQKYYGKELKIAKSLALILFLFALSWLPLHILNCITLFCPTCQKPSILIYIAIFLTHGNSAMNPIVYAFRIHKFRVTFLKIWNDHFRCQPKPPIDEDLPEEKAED

[2] = biological target: Adenosine receptor A2a (Rattus norvegicus) (UniProt P30543); assay: Antagonistic activity assayed by displacement of specific [3H]-CGS-21,680 binding in rat striatal membrane (adenosine A2A receptor) at a conc of […].; assay type: cell membranes; conditions: Striatum
[3] = Relative binding affinity for adenosine receptors A1 and A3 as ratio of Ki

Chain of Adenosine receptor A2a (Rattus norvegicus) (P30543 whole entry): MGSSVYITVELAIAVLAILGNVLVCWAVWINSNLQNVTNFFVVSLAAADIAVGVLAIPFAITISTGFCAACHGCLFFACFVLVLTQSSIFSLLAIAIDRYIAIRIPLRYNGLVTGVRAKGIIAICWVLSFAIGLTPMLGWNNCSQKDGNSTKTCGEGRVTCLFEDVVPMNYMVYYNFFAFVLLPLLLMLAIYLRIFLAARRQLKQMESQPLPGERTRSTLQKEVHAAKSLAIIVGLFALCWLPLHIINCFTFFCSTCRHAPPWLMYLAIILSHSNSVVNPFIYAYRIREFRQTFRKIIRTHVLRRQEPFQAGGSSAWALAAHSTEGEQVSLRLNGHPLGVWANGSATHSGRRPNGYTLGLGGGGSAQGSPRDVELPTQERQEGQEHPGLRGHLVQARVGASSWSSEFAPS

Structure (SMILES)	Displacement [1]	Displacement [2]	Ratio [3]
N=CNc1nc(-c2ccccn2)nc2ccccc12	38%	17%	–
O=C(Cc1nc(-c2ccccn2)cc2ccccc12)c1ccccc1	–	22%	0.36
O=C(c1ccccc1)N(C(=O)c1ccccc1)c1nc(-c2ccccn2)cc2ccccc12	–	27%	19
N=C(Nc1nc(-c2ccccn2)cc2ccccc12)c1ccccc1	–	4%	–
Oc1nc(-c2ccccn2)nc2ccccc12	16%	10%	–
O=C(Nc1nc(-c2ccccn2)nc2ccccc12)C(F)(F)F	8%	0%	–
CC(=O)Nc1nc(-c2ccccn2)nc2ccccc12	25%	17%	–
CC(C)C(=O)Nc1nc(-c2ccccn2)cc2ccccc12	38%	48%	–
O=C(c1ccccc1)N(C(=O)c1ccccc1)c1nc(-c2ccccn2)nc2ccccc12	3%	3%	–
N=CNc1nc(-c2ccccn2)cc2ccccc12	–	42%	–
COc1ccc(C(=O)Nc2nc(-c3ccccn3)cc3ccccc23)cc1OC	41%	20%	–
Oc1nc(-c2ccccn2)cc2ccccc12	21%	–	–
O=C(Nc1nc(-c2ccccn2)nc2ccccc12)c1ccccc1	0%	2%	–
COc1ccc(C(=O)Nc2nc(-c3ccccn3)nc3ccccc23)cc1	41%	20%	–

Continued, values first:

Displacement [1]	Displacement [2]	Ratio [3]	Structure (SMILES)
0%	0%	–	O=C(Nc1nc(-c2ccccn2)cc2ccccc12)c1ccc(Cl)c(Cl)c1
24%	18%	–	CC(=O)Nc1nc(-c2ccccn2)cc2ccccc12
22%	0%	–	COc1cccc(C(=O)Nc2nc(-c3ccccn3)cc3ccccc23)c1
2%	0%	–	Cc1cccc(C)c1C(=O)Nc1nc(-c2ccccn2)cc2ccccc12
14%	0%	–	COc1ccc(C(=O)Nc2nc(-c3ccccn3)cc3ccccc23)cc1
16%	0%	–	Cc1ccc(C(=O)Nc2nc(-c3ccccn3)cc3ccccc23)cc1C
29%	7%	–	Cc1ccc(C)c(C(=O)Nc2nc(-c3ccccn3)cc3ccccc23)c1
8%	0%	–	Cc1cc(C)cc(C(=O)Nc2nc(-c3ccccn3)cc3ccccc23)c1
42%	0%	–	O=C(Nc1nc(-c2ccccn2)cc2ccccc12)c1cccc(Cl)c1
–	0%	16	O=C(Nc1nc(-c2ccccn2)cc2ccccc12)c1ccccc1
14%	0%	–	Cc1ccc(C(=O)Nc2nc(-c3ccccn3)cc3ccccc23)c(C)c1
11%	0%	–	O=C(Nc1nc(-c2ccccn2)cc2ccccc12)c1ccc(Cl)cc1
35%	0%	–	Cc1cccc(C(=O)Nc2nc(-c3ccccn3)cc3ccccc23)c1
37%	0%	–	Cc1ccc(C(=O)Nc2nc(-c3ccccn3)cc3ccccc23)cc1
